Data taken from patent US20050256210A1, “Compounds with activity at estrogen receptors” (priority 2004, published 2005).
Where two headings read alike, the source gives them in different places.

Assays:
[1] = target: T1, Estrogen receptor alpha (ERα) (Homo sapiens, UniProt P03372); assay: Receptor Selection and Amplification Technology (R-SAT) functional receptor assay, ERα; type: cell-based; conditions: for Emax / % Efficacy ERα: NIH3T3 cells, efficacy relative to the reference ligand Estrone; for EC50 / pEC50 ERα: transfected NIH3T3 cells, agonist activity
T1 construct: expressed in transfected cells; host or cells: NIH3T3
T1 sequence (P03372 1-595): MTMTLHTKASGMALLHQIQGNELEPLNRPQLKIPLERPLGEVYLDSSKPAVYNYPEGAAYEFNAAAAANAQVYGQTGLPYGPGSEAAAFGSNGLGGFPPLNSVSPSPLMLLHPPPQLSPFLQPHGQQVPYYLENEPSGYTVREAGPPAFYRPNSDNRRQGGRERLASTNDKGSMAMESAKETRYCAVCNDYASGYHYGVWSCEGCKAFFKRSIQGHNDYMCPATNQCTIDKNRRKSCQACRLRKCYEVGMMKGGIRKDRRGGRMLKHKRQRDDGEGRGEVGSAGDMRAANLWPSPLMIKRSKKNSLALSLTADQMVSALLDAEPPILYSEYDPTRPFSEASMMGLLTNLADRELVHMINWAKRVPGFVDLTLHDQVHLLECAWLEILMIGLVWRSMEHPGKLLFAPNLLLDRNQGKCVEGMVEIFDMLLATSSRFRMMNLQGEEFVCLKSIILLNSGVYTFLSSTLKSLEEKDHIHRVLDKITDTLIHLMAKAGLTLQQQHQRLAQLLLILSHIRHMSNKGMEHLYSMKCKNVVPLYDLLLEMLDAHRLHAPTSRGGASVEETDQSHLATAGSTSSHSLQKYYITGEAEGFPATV
Procedure: (§1) The functional receptor assay, Receptor Selection and Amplification Technology (R-SAT™), was used with minor modifications from the procedure described in U.S. Pat. No. 5,707,798, which is hereby incorporated by reference in its entirety, to screen compounds for efficacy at the Estrogen receptors alpha and beta (ERα, ERβ). NIH3T3 cells were grown in roller bottles to 70-80% confluence. Cells were then transfected for 12-16 h with plasmid DNAs using Polyfect (Qiagen Inc.) as per the manufacturer's protocol. R-SAT assays were typically performed by transfecting 30 ug/bottle of receptor and 50 ug/bottle of β-galactosidase plasmid DNA. All receptor and helper constructs used were in mammalian expression vectors. Helpers are defined as signaling molecules that modulate both ligand-dependent and/or ligand-independent function of the ER receptors, typically co-activators and kinases. NIH3T3 cells were transfected for 12-16 h, then trypsinized and frozen in DMSO. Frozen cells were later thawed, plated at 10,000-40,000 cells per well of a 96 well plate containing 4-(1-Phenyl-cyclohexyl)-phenol. Cells were then grown in a humidified atmosphere with 5% ambient CO2 for five days. Media was then removed from the plates and marker gene activity was measured by the addition of the β-galactosidase substrate o-nitrophenyl β-D-galactopyranoside (ONPG, in PBS with 5% NP-40). The resulting colorimetric reaction was measured in a spectrophotometric plate reader (Titertek Inc.) at 420 nM. All data were analyzed using the computer program XLFit (IDBSm).
These experiments provided a molecular profile, or fingerprint, for each agent tested at the human Estrogen receptors.

[2] = target: T2, Estrogen receptor beta (ERβ) (Homo sapiens, UniProt Q92731); assay: Receptor Selection and Amplification Technology (R-SAT) functional receptor assay, ERβ; type: cell-based
T2 construct: expressed in transfected cells; host or cells: NIH3T3
T2 sequence (Q92731 whole entry): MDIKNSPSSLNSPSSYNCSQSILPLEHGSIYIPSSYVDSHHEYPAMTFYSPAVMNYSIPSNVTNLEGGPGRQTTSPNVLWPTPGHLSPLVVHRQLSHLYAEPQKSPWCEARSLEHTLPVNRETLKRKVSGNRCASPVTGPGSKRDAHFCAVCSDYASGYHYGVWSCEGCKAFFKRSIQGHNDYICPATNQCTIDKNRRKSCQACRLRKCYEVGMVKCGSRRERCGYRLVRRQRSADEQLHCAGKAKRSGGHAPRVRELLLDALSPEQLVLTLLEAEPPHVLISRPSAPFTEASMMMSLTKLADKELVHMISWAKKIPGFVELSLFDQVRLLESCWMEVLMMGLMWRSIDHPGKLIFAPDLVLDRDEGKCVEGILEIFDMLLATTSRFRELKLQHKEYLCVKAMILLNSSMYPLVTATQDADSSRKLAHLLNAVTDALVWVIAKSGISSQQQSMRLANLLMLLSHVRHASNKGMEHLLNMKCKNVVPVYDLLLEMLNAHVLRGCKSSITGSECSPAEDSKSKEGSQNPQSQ
Procedure: as §1, with “NIH3T3” for “The functional receptor assay, Receptor Selection and Amplification Technology (R-SAT™), was used with minor modifications from the procedure described in U.S. Pat. No. 5,707,798, which is hereby incorporated by reference in its entirety, to screen compounds for efficacy at the Estrogen receptors alpha and beta (ERα, ERβ). NIH3T3”, “The resulting colorimetric reaction was measured in a spectrophotometric plate reader (Titertek Inc.) at 420 nM.” left out

[3] = system: immature female Sprague-Dawley rats; assay: Uterotrophic in vivo assay (uterine weight); set-up: species or system rat; conditions: 10, 30 or 100 mg/kg s.c. daily for 3 days; FIG. 4
Procedure: The effect of ERB-002 on uterine weight was assessed based on the previously published method of Harris et al., Endocrin, 2003, 143:4172, which is hereby incorporated by reference in its entirety. Naïve, female Sprague-Dawley rats (30-40 g; n=6 per group) served as subjects. Rats received daily subcutaneous injections of vehicle (100% DMSO), PPT (1.0 mg/rat)), a reportedly selective ERα agonist (Stauffer, 2000, J Med Chem 43:4934) or various doses of ERB-002 (10, 30 or 100 mg/kg) for a total of 3 days. Approximately 24 hours after the final injection, the rats were sacrificed, the uteri removed, trimmed of adhesions, fluid expelled and then weighed. Uterine weight was normalized as a percentage of total body weight by the following formula: % TBW=[(uterus weight (in mg)[…])/(body weight (in g))]*100.

male Sprague-Dawley rats = assay: CFA induced arthritis rat model assay (hot plate latency, paw thickness); type: in vivo; conditions: 1.0, 3.0 or 10 mg/kg s.c. daily from Day 4 after CFA
Procedure: Naïve, male Sprague-Dawley rats (225-250 g; n=6 per group) served as subjects. Response latencies to a noxious thermal stimulus were measured using the 52° C. hot plate test. After obtaining baseline responses, 0.1 ml of Freund's complete adjuvant (CFA) or vehicle (inactivated CFA (iCFA)) was injected into the dorsal surface of the left hind paw. Response latencies were again measured 4 days following CFA (or iCFA) administration, a time point when thermal hyperalgesia is stable. A significant decrease in the hot plate latency was interpreted as the presence of thermal hyperalgesia. Following testing, thickness of both hind paws were measured (using a micrometer) in order to quantify possible edema formation at the injection site. Various doses of 4-(1-Phenyl-cyclohexyl)-phenol (ERB-002) (1.0, 3.0 or 10 mg/kg) or vehicle (DMSO) were administered (s.c.) following testing on Day 4, and then daily following testing for a period of 3 days.

[4] = R-SAT, NIH3T3 cells, efficacy relative to the reference ligand Estrone
[5] = R-SAT, transfected NIH3T3 cells, agonist activity
[6] = R-SAT, NIH3T3 cells, efficacy relative to the reference ligand Estrone, read-out: % Efficacy ERβ
[7] = R-SAT, transfected NIH3T3 cells, agonist activity, read-out: pEC50 ERβ (converted)

Emax [1] [%] | EC50 [1] [µM] | Emax [2, 6] [%] | EC50 [2, 7] [µM] | SMILES | other results
80 | 0.251 | 46 | 0.00631 | Oc1ccc(C2(c3ccccc3)CCCCCCC2)cc1 [ERB-017, 4-(1-Phenyl-cyclooctyl)-phenol] | –
95 | 2.51 | 46 | 0.0631 | Oc1ccc(C2(c3ccccc3)CCC(C(F)(F)F)CC2)cc1 (stereo not shown) [ERB-030, 4-(1-Phenyl-[4-(trifluoromethyl)-cyclohexyl])-phenol] | –
114 | 1.58 | 48 | 0.00794 | CC(C)C1CCC(c2ccc(O)cc2)(c2cccc(F)c2)CC1 (stereo not shown) [ERB-037, 4-[1-(3-Fluoro-phenyl)-4-isopropyl-cyclohexyl]-phenol] | –

Second part, the compound before the results:

SMILES | Emax [1] [%] | EC50 [1] [µM] | Emax [2, 6] [%] | EC50 [2, 7] [µM] | other results
Oc1ccc(C2(c3ccccc3)CCCCC2)cc1 [ERB-002, 4-(1-Phenylcyclohexyl)phenol] | 50 | 3.16 | – | – | EC50 [2]: 0.0631 µM; Emax ([2]; NIH3T3, read-out: % Efficacy ERβ): 85%; selectivity of activation of ERβ relative to ERα ([2]; R-SAT, Table 1 and FIG. 1): selectively activates Estrogen beta receptor (ERβ) relative to the Estrogen alpha receptor (ERα); uterotrophic properties (uterine weight as % of total body weight) [3]: does not display uterotrophic properties; reversal of thermal hyperalgesia (52° C. hot plate latency) (male Sprague-Dawley rats; FIG. 2): dose dependent reversal of thermal hyperalgesia; reversal of edema (paw thickness) (male Sprague-Dawley rats; FIG. 3): dose dependent reversal of edema
Oc1ccc(C2(c3ccc(F)c(F)c3)CCCCC2)cc1 [ERB-009] | – | – | – | – | % Efficacy ERα [1]: 100%; pEC50 ERα [1]: 5.4; % Efficacy ERβ [2, 4]: 138%; pEC50 ERβ [2, 5]: 7.2
Oc1ccc(C2(c3ccc(F)cc3F)CCCCC2)cc1 [ERB-011, 4-(1-(2,4-Difluoro-phenyl)-cyclohexyl)-phenol] | 20 | > 10 | 37 | 0.0794 | –
Oc1ccc(C2(c3ccccc3)CCCCCC2)cc1 [ERB-012, 4-(1-Phenyl-cycloheptyl)-phenol] | 69 | 0.631 | 41 | 0.126 | –
Oc1ccc(C2(c3ccc(F)cc3)CCCCCC2)cc1O [ERB-014, 4-[1-(4-Fluoro-phenyl)-cycloheptyl]-benzene-1,2-diol] | 120 | 1.26 | 87 | 0.0794 | –
Oc1ccc(C2(c3ccc(F)cc3)CCC(C(F)(F)F)CC2)cc1 (stereo not shown) [ERB-031, 4-(1-(4-Flourophenyl)-[4-(trifluoromethyl)-cyclohexyl])-phenol] | – | – | – | – | % Efficacy ERα [1]: 124%; pEC50 ERα [1]: 5.6; % Efficacy ERβ [2, 4]: 62%; pEC50 ERβ [2, 5]: 6.1
